From a compilation of properties of binary mixtures (doi:10.1016/j.molliq.2015.01.031)

Assay: xn = mol fraction of the nth substance listed
Details: 101 kPa

CCCC[n+]1ccn(C)c1.F[B-](F)(F)F + CC(O)CO
speed of sound (303.15 K, x2 = 0): 1552.9 m/s
speed of sound (318.15 K, x2 = 0): 1518 m/s
speed of sound (323.15 K, x2 = 0): 1506.6 m/s

CC(O)CO (stereo unspecified) + CCCC[n+]1ccn(C)c1.F[B-](F)(F)F
speed of sound (298.15 K, x1 = 0.4189): 1545.8 m/s
speed of sound (298.15 K, x1 = 0.5064): 1541.1 m/s
speed of sound (298.15 K, x1 = 0.6165): 1535.1 m/s
speed of sound (298.15 K, x1 = 0.695): 1530.5 m/s
speed of sound (298.15 K, x1 = 0.797): 1524.7 m/s
speed of sound (298.15 K, x1 = 0.8966): 1518.5 m/s
speed of sound (298.15 K, x1 = 1): 1511 m/s
speed of sound (303.15 K, x1 = 0.1182): 1548.1 m/s
speed of sound (303.15 K, x1 = 0.2003): 1544.1 m/s
speed of sound (303.15 K, x1 = 0.3122): 1538.9 m/s
speed of sound (303.15 K, x1 = 0.5064): 1529 m/s
speed of sound (303.15 K, x1 = 0.6165): 1522.8 m/s
speed of sound (303.15 K, x1 = 0.797): 1511.8 m/s
speed of sound (303.15 K, x1 = 0.8966): 1505.3 m/s
speed of sound (303.15 K, x1 = 1): 1497.2 m/s
speed of sound (308.15 K, x1 = 0.2003): 1532.3 m/s
speed of sound (308.15 K, x1 = 0.4189): 1521.8 m/s
speed of sound (308.15 K, x1 = 0.5064): 1516.9 m/s
speed of sound (308.15 K, x1 = 0.6165): 1510.4 m/s
speed of sound (308.15 K, x1 = 0.695): 1505.3 m/s
speed of sound (308.15 K, x1 = 0.797): 1498.8 m/s
speed of sound (308.15 K, x1 = 0.8966): 1491.8 m/s
speed of sound (308.15 K, x1 = 1): 1483.1 m/s
speed of sound (313.15 K, x1 = 0.1182): 1524.6 m/s
speed of sound (313.15 K, x1 = 0.2003): 1520.6 m/s
speed of sound (313.15 K, x1 = 0.3122): 1515.2 m/s
speed of sound (313.15 K, x1 = 0.4189): 1509.8 m/s
speed of sound (313.15 K, x1 = 0.5064): 1504.7 m/s
speed of sound (313.15 K, x1 = 0.695): 1492.6 m/s
speed of sound (313.15 K, x1 = 0.797): 1485.7 m/s
speed of sound (313.15 K, x1 = 1): 1469 m/s
speed of sound (318.15 K, x1 = 0.1182): 1513 m/s
speed of sound (318.15 K, x1 = 0.2003): 1509 m/s
speed of sound (318.15 K, x1 = 0.4189): 1497.9 m/s
speed of sound (318.15 K, x1 = 0.5064): 1492.5 m/s
speed of sound (318.15 K, x1 = 0.6165): 1485.5 m/s
speed of sound (318.15 K, x1 = 0.695): 1480 m/s
speed of sound (318.15 K, x1 = 0.797): 1472.7 m/s
speed of sound (318.15 K, x1 = 1): 1454.9 m/s
speed of sound (323.15 K, x1 = 0.1182): 1501.6 m/s
speed of sound (323.15 K, x1 = 0.2003): 1497.4 m/s
speed of sound (323.15 K, x1 = 0.3122): 1491.8 m/s
speed of sound (323.15 K, x1 = 0.4189): 1486.1 m/s
speed of sound (323.15 K, x1 = 0.5064): 1480.5 m/s
speed of sound (323.15 K, x1 = 0.695): 1467.3 m/s
speed of sound (323.15 K, x1 = 0.797): 1459.6 m/s
speed of sound (323.15 K, x1 = 0.8966): 1451.4 m/s
speed of sound (323.15 K, x1 = 1): 1440.7 m/s

OCCCO + CCCC[n+]1ccn(C)c1.F[B-](F)(F)F
speed of sound (298.15 K, x1 = 0.1026): 1564.2 m/s
speed of sound (298.15 K, x1 = 0.2072): 1563.5 m/s
speed of sound (298.15 K, x1 = 0.3172): 1565.2 m/s
speed of sound (298.15 K, x1 = 0.503): 1574.2 m/s
speed of sound (298.15 K, x1 = 0.6011): 1580.8 m/s
speed of sound (298.15 K, x1 = 0.7009): 1590 m/s
speed of sound (298.15 K, x1 = 0.8979): 1612.8 m/s
speed of sound (298.15 K, x1 = 1): 1628.8 m/s
speed of sound (303.15 K, x1 = 0.2072): 1551.8 m/s
speed of sound (303.15 K, x1 = 0.3172): 1553.4 m/s
speed of sound (303.15 K, x1 = 0.3943): 1557.4 m/s
speed of sound (303.15 K, x1 = 0.503): 1562.4 m/s
speed of sound (303.15 K, x1 = 0.6011): 1569 m/s
speed of sound (303.15 K, x1 = 0.7009): 1578.2 m/s
speed of sound (303.15 K, x1 = 0.8006): 1589.4 m/s
speed of sound (303.15 K, x1 = 0.8979): 1601.1 m/s
speed of sound (303.15 K, x1 = 1): 1617.6 m/s
speed of sound (308.15 K, x1 = 0.1026): 1540.8 m/s
speed of sound (308.15 K, x1 = 0.2072): 1539.9 m/s
speed of sound (308.15 K, x1 = 0.3172): 1541.5 m/s
speed of sound (308.15 K, x1 = 0.3943): 1545.5 m/s
speed of sound (308.15 K, x1 = 0.503): 1550.6 m/s
speed of sound (308.15 K, x1 = 0.6011): 1557.2 m/s
speed of sound (308.15 K, x1 = 0.7009): 1566.5 m/s
speed of sound (308.15 K, x1 = 0.8006): 1577.8 m/s
speed of sound (308.15 K, x1 = 1): 1606.2 m/s
speed of sound (313.15 K, x1 = 0.1026): 1529.1 m/s
speed of sound (313.15 K, x1 = 0.2072): 1528.2 m/s
speed of sound (313.15 K, x1 = 0.6011): 1545.5 m/s
speed of sound (313.15 K, x1 = 0.7009): 1554.8 m/s
speed of sound (313.15 K, x1 = 0.8006): 1566.2 m/s
speed of sound (313.15 K, x1 = 0.8979): 1578.1 m/s
speed of sound (313.15 K, x1 = 1): 1594.8 m/s
speed of sound (318.15 K, x1 = 0.1026): 1517.6 m/s
speed of sound (318.15 K, x1 = 0.2072): 1516.6 m/s
speed of sound (318.15 K, x1 = 0.3172): 1518.1 m/s
speed of sound (318.15 K, x1 = 0.3943): 1522.1 m/s
speed of sound (318.15 K, x1 = 0.503): 1527.1 m/s
speed of sound (318.15 K, x1 = 0.8006): 1554.6 m/s
speed of sound (318.15 K, x1 = 0.8979): 1566.6 m/s
speed of sound (318.15 K, x1 = 1): 1583.5 m/s
speed of sound (323.15 K, x1 = 0.1026): 1506.2 m/s
speed of sound (323.15 K, x1 = 0.2072): 1505.1 m/s
speed of sound (323.15 K, x1 = 0.3172): 1506.5 m/s
speed of sound (323.15 K, x1 = 0.503): 1515.5 m/s
speed of sound (323.15 K, x1 = 0.6011): 1522.2 m/s
speed of sound (323.15 K, x1 = 0.7009): 1531.6 m/s
speed of sound (323.15 K, x1 = 0.8006): 1543.1 m/s
speed of sound (323.15 K, x1 = 1): 1572.1 m/s

CCCC[n+]1ccn(C)c1.F[B-](F)(F)F + OCCCO
speed of sound (298.15 K, x2 = 0): 1565.1 m/s
speed of sound (303.15 K, x2 = 0): 1553.2 m/s
speed of sound (308.15 K, x2 = 0): 1541.3 m/s
speed of sound (313.15 K, x2 = 0): 1529.7 m/s
speed of sound (318.15 K, x2 = 0): 1518.2 m/s
speed of sound (323.15 K, x2 = 0): 1506.8 m/s
